From patent US10493046B2, “5-hydroxytryptamine 1B receptor-stimulating agent for use as a promoter of satellite cells self-renewal and/or differentiation” (INSTITUT PASTEUR, priority 2015, dated 2019) come the findings set out here.

In test [1] the test system is satellite cells. In words: FACS-sorted satellite cells in vitro, compound added to the culture medium. The test is classed as cell-based, mouse. Particulars: for Pax7+ (reserve, self-renewing) cells 14 days post-plating / Pax7 positive cells 4 days post-plating / Cells MyoG+ (Myogenin staining): compound added at 10 μM; for Pax7 positive cells 4 days post-plating: 2.000 cells per cm^2; for Cells MyoG+ (Myogenin staining): after 4 days. As for the experimental part:
(§1) Muscle dissection was done as previously described in cold DMEM. Muscles were then chopped with small scissors and put in a 50 ml Falcon tube with collagenase 0.1% and trypsin 0.25% at 37° C. with gentle agitation. After 20 minutes, the supernatant was collected in 20% serum placed on ice, and the collagenase/trypsin solution was added to continue the digestion. Once muscle was completely digested, the solution was filtrated using 40 μm cell strainers. Satellite cells were cultured in 1:1 DMEM-Glutamax (Gibco#41965-039):MCDB201 (Sigma#M6770) containing 20% serum FBS (Biowest S1860). Medium was filtered using 0.22 μm filters. Cells were plated on Matrigel coating (BD Biosciences#354234) and kept in an incubator (37° C., 5% CO2). […] The thus-obtained supernatant replaced FBS in the culture medium; the rest of the medium was unchanged.
Satellite cells were isolated from Tg:Pax7nGFP mice and cells were plated at 2.000 cells per cm^2. After overnight, vortioxetine was added at 10 μM. […] 14 days post-plating, a higher number of reserve cells (Pax7 positive cells that are quiescent in vitro) were detected in the vortioxetine-treated cells (9%±0.7) than in the PBS (3.5%±0.9, p=0.01), and when GR127935 inhibitor was added in vitro the number of reserve cells dropped (3.5%±0.9, p=0.9) (FIG. 11c). […] This difference in expression was lost when SC were plated with the GR127935 5-HT1 BR inhibitor (p=0.4) (FIGS. 11c-e). The positive effects of vortioxetine were lost when GR127935 was added in vitro together with vortioxetine (FIGS. 11c-e). These effects were however persistent when adding the 5-HT2 BR antagonist (FIGS. 11c-e). This means that the positive effects observed when plating vortioxetine in vitro with satellite cells is mediated via the 5HT1B receptor and not 5HT2B.
To test whether, 2 derivatives of vortioxetine, namely histidine-vortioxetine and pyrrolidinium-vortioxetine, could have similar or improved effect compared to the unmodified vortioxetine, the in vitro approach as described in section 2.2.3 above was used and the differentiation cascade of satellite cells was investigated by assessing the expression pattern of Pax7 (a marker of stemness and quiescence) and Myogenin (MyoG, a marker of differentiation) as described above in section 2.2.3. To do so, satellite cells from Tg:Pax7-nGFP were isolated by FACS and plated at 2.000 cells per cm^2 (seeded overnight). The following day, the vortioxetine, its derivatives, or the control PBS was added at 10 μM and the cells were fixed at the indicated time points.

In test [2] the test system is satellite cells. In words: Satellite cell (SC) number in tibialis anterior of treated mice (histological count or FACS cytometry). The test is classed as in vivo, mouse.
Test [3] deals with satellite cells. The test is described as above. Particulars: for Number of satellite cells per TA by cytometry: Tg:Pax7nGFP mice. The test is classed as in vivo, mouse. The protocol:
For satellite cell counting, only the tibialis anterior muscle was dissected and digested as described earlier, and the totality of the tube was analysed to assess the number of satellite cells per muscle. FACS analysis was done using a FACSasia (Beckman). All analyses and quantitation were performed using Summit v4.3 software from DakoCytomation and FloJo software. […]
In order to count the number of satellite cells, the tibialis anterior (TA) of Tg:Pax7nGFP mice were digested and analysed by FACS in placebo and vortioxetine (12 days, 20 mg/Kg) treated mice. […] After 3 weeks of vortioxetine treatment, the number of satellite cells was even higher (9351 satellite cells±706, p=0.0079) but no statistically significant differences were found between 12 days and 3 weeks of treatment (p=0.15).

A further test concerns Tibialis anterior. The test can be described thus: Muscle regeneration after notexin injury of tibialis anterior. The conditions noted are these: antagonist together with fluoxetine; SC, differentiating cells, fiber size, calcium deposits, fibrosis, Gr1 and F4/80 cells. The test is classed as in vivo, mouse. As for the experimental part:
Animals were anesthetized with ketamine (Imalgene1000 100 mg/Kg Merial) and Xylazine (Rompun2% 20 mg/Kg Bayer) prior to injury. Animals were hydrated and treated with analgesic (Buprenorphin Axience 0.3 mg/kg) twice a day for 4 d following injury. For the injury, mice were anesthetized as previously described and 10 μl of 12.5 μg/ml Notexin (Lotaxan) was injected in the Tibialis anterior. All protocols were reviewed by the Institut Pasteur, the competent authority, for compliance with the French and European regulations on Animal Welfare and with Public Health Service recommendations. This project has been reviewed and approved (#2013-0044) by the Institut Pasteur ethic committee (C2EA 89-CETEA).
Tibialis anterior (TA) was carefully dissected and snap frozen in liquid-nitrogen-cooled isopentane for a few minutes and stored at −80° C. prior to cryosectioning (10 μm sections). Sections were kept at room temperature overnight before staining. Sections were then rehydrated in PBS for 10 minutes and fixed in 10% formalin for 3 minutes. The sections were then routinely stained with haematoxylin and eosin (HE) using an automated stain machine or manually with red sirius.
(§2) Immunostaining was performed on cryosections fixed with 4% paraformaldehyde (PFA EMS#15710) in cold PBS, permeabilized with 0.5% Triton X-100 20 min at room temperature, washed, and blocked with 10% BSA for 30 min. Sections were incubated with primary antibodies overnight at 4° C. (see Table 1 below) and with Alexa-conjugated secondary antibodies 1/250 and Hoechst for 45 minutes. Sections were then analysed using an automated axioscan (Zeiss) or inverted Observer.Z1 Apotome (Zeiss). For apoptosis assessment, cells were collected in 2% serum, spun on polyD-lysine (Sigma-Aldrich#P6407), and immediately fixed with PFA 4%.
For image analysis (fibrosis quantification), ImageJ 1.46r software was using between 10 different photos randomly taken per section and 3 sections minimum per experimental group. The pictures were converted in a binary image and the pixel values then collected. For fibre size, the sections were immunostained with rabbit anti Laminin (Sigma-Aldrich #L9393) diluted at 1/200, overnight at 4° C. Secondary Donkey ant Rabbit 488 (DL488 JacksonImmuno #711486152) were used at 1/200 45 minutes at room temperature. The fibre perimeter was done automatically by using Pixcavator® software.

Test [4] deals with satellite cells. The test can be described thus: Satellite cells in vitro in plasma of treated mice (live videomicroscopy, immunostaining). The test is classed as cell-based, mouse. Particulars: plasma from fluoxetine-treated mice plus MDL100907. The protocol:
as §1
Cells isolated by FACS were plated overnight on a 24-well glass bottom plate (P24G-0-10-F; MatTek) coated with matrigel (BD Biosciences#354234) and placed in an incubator in pre-equilibrated medium (1:1 DMEM Glutamax: MCDB [Sigma-Aldrich], 20% FCS (Biowest S1860). The plate was then incubated at 37° C., 5% CO2 (Zeiss, Pecon). A Zeiss Observer.Z1 connected with a LCI PInN 10×/0.8 W phaseII objective and AxioCam camera piloted with AxioVision was used. Cells were filmed for up to 5 days, and images were taken every 30 min with brightfield and phase filters and MozaiX 3×3 (Zeiss). Raw data were transformed and presented as a video.
Those results were confirmed in vitro (FIG. 7a). […] This difference was lost when SC were plated with GR127935 (p=0.4) (FIG. 7e). The faster exit of quiescence and higher division rates were also lost when adding GR127935 in vitro (FIGS. 7f,g). The effects of the plasma from fluoxetine-treated animals were persistent when adding MDL100907 (FIGS. 7b-g).

Test [5] relates to vessels. The test can be described thus: Vessel number in tibialis anterior of treated mice (Flk1GFP/+ or CD31 immunostaining). The test is classed as in vivo, mouse. Particulars: vortioxetine I.P 12 days and PBS in osmotic pump.
Test [6] concerns vessels. The description is as above. The test is classed as in vivo, mouse. The protocol: as §2
Throughout the study, focus was made on the tibialis anterior (TA). In skeletal muscle, SC are central for muscle repair. […] SC are localized close to capillaries and angiogenesis is known to be crucial for muscle repair SC survival with cellular interplays between vessel cells and SC. The number of vessels was therefore quantified. In control Flk1^GFP/+ mouse (placebo), the number of vessels was of 870±213.1 vessels per mm^2 and increased after 3 weeks of I.P treatment (1103±110.2 vessels per mm^2), and even more after 6 weeks (1384±175.3 vessels per mm^2, p=0.008) (FIG. 2e). Neovessels presented with normal histological appearance associating a basal lamina and a permeable lumen sometimes containing red blood cells. […] 841±137 CD31+ cells per mm^2 were counted in the placebo-treated mice vs. 2260±361 CD31+ cells per mm^2 in the fluoxetine-treated mice, p=0.008 (FIG. 2t-v), confirming the previous observation.
In order to investigate the effect of vortioxetine on vessels number, intra peritoneal (I.P) administration of 20 mg/kg of vortioxetine was performed for either 12 days, 3 or 6 weeks to C57Bl/6 mice (FIG. 10a). The number of CD31+ cells was counted by immunostaining. The number of vessels in the placebo is (863.5±115.6 vessels per mm^2) and increases after 12 days of I.P treatment (2274±926 vessels per mm^2, p=0.03), and even more after 3 weeks (2847±705 vessels per mm^2, p=0.02) (FIG. 10b). However, there was no statistically significant differences between 12 days and 3 weeks of treatment (p=0.49). Neovessels display a normal histological appearance associated with a basal lamina and a permeable lumen sometimes containing red blood cells. The daily administration of vortioxetine IP might cause unwanted peritoneal inflammation that could interfere with angiogenesis since inflammation and neovascularization are intertwined in some models. Vortioxetine was therefore administered per os (P.O) for 12 days: a similar increase in the number of vessels was observed (2451±595 vessels per mm^2 p=0.028, FIG. 10c). To further confirm those results, vortioxetine will be administered to Flk1^GFP/+ mice P.O and I.P for 12 days, and an ex vivo Matrigel angiogenesis assay and plasma from vortioxetine treated mice will be used on HUVEC (endothelial cells).

The structures appear in SMILES notation. “And” between values parts separate entries of the source, which are not always exact repeats. Equal entries are not always repeated.

In the case of `CCCOc1ccc2[nH]cc(C3=CCNCC3)c2n1` [5-HT1B agonist], in the test on satellite cells [1] (direct addition in the culture media, Pax7+ and Myogenin+ cells), the “Effect of direct addition on differentiation and self-renewal of SC” value was “triggered the same effect as the addition of plasma from fluoxetine-treated mice”.

With `COc1cccc([C@H](O)C2CCN(CCc3ccc(F)cc3)CC2)c1OC` [MDL100907], the “Inhibition of fluoxetine effects on SC and vessel number by the antagonist” value with satellite cells [2] (antagonist together with fluoxetine treatment) is reported as “no inhibition of fluoxetine effects were observed”. Also, the “Inhibition of vortioxetine effects on vessels and SC number by the antagonist” value with satellite cells [3] (MDL100907 together with vortioxetine) is reported as “No inhibition of vortioxetine effects was observed”. The “Effect of the antagonist on the beneficial effects of fluoxetine after injury” value with Tibialis anterior is reported as “did not suppress the beneficial effects of fluoxetine”. Moreover, in the test on satellite cells [4], the “Effects of the plasma from fluoxetine-treated animals when adding MDL100907” value is reported as “persistent”. Further, in the test with satellite cells [1] (5-HT2 BR antagonist together with vortioxetine 10 μM), the “Effects of vortioxetine when adding the 5-HT2 BR antagonist” value is “persistent”.

For the compound `Cc1ccc(Sc2ccccc2N2CC[N+]3(CCCC3)CC2)c(C)c1` [pyrrolidinium-vortioxetine], the “Number of SCs in the TA vs PBS” value with satellite cells [3] (20 mg/Kg IP for 12 days, TgPax7nGFP mice) is reported as “doubling”. Further, the “Increase in number of self-renewing cells compared with vortioxetine alone” value in the test with satellite cells [1] (10 μM, 14 days post-plating) was 20%. In addition, in the test on satellite cells [1], the “Pax7+ (reserve, self-renewing) cells 14 days post-plating” value was determined as 12.5±1.9%; the “Pax7 positive cells 4 days post-plating” value came to 25.25±4%; the “Cells MyoG+ (Myogenin staining)” value turned out to be 19.75±0.47%.

With `Cc1ccc(Sc2ccccc2N2CCNCC2)c(C)c1` [vortioxetine, 1-[2-(2,4-Dimethylphenylsulfanyl)phenyl]piperazine], the Number of vessels in the test on vessels [5] stood at 2274±926 vessels per mm^2. For the same compound, the “SC increase by histological count on TA sections” value in the test on satellite cells [2] (vortioxetine 12 days, 20 mg/Kg) was “two-fold increase”. For the same compound, the “Number of satellite cells per TA by cytometry” value is 9351 satellite cells in the test with satellite cells [3] (vortioxetine 3 weeks) and 8660 satellite cells in the test on satellite cells [3] (vortioxetine 12 days, 20 mg/Kg). Also, the “SC number after P.O administration vs I.P” value in the test on satellite cells [3] (vortioxetine P.O at 20 mg/kg) is recorded as “a similar increase in SC number”. The “Pax7+ (reserve, self-renewing) cells 14 days post-plating” value in the test on satellite cells [1] was 9% and 10.5±0.65%. The “Pax7 positive cells 4 days post-plating” value in the test on satellite cells [1] was 23% and 23.7±2.78%. Also, the “Cells MyoG+ (Myogenin staining)” value in the test on satellite cells [1] is 34.5±2.5%. Moreover, the “MyoD (activation marker) expression between conditions” value with satellite cells [1] (vortioxetine 10 μM vs PBS vs GR127935) is on record as “did not differ at any time investigated”. Besides, in the test with satellite cells [1] (vortioxetine 10 μM, 4 days post-plating), the “Myogenin (MyoG) expression increase” value is listed as 2 times increase. Moreover, the “Number of vessels (CD31+)” value was 2847±705 vessels per mm^2 with vessels [6] (vortioxetine 20 mg/kg I.P, 3 weeks, C57Bl/6 mice); 2274±926 vessels per mm^2 in the test with vessels [6] (vortioxetine 20 mg/kg I.P, 12 days, C57Bl/6 mice); 2451±595 vessels per mm^2 with vessels [6] (vortioxetine per os (P.O), 12 days).
